Assay results from patent US8470772B2, “Leptin agonist and methods of use” (Temple University—Of The Commonwealth System of Higher …, priority 2008, dated 2013).
Non-standard residues stand in square brackets, D forms with d. No end group written: not given here. *: point of attachment. βGlc = OC[C@H]1O[C@@H](*)[C@H](O)[C@@H](O)[C@@H]1O; Tyr(3,5-I2) = N[C@@H](Cc1cc(I)c(O)c(I)c1)C(=O)O; Dap = NC[C@H](N)C(=O)O

Tests used:
ERK1/2 = experiment: ObR signaling assay: ERK1/2 phosphorylation in MCF-7 cells by Western blotting; format: cell-based, human
Description: MCF-7 cells were grown and treated with E1Free peptide and full-sized leptin as described for the cell stimulation assays elsewhere herein. Cells were lysed with SDS sample buffer and scraped off of the plate. DNA was sheared using sonication, after which the sample was heated to 95° C., centrifuged and, subjected to SDS-PAGE. After gel electrophoresis, the proteins were transferred to nitrocellulose membrane. The membrane was incubated with 5% milk as blocking buffer, followed by addition of rabbit polyclonal antibodies to phosphorylated or total ERK1/2 MAP kinases (1:500 dilution in TBST and 2% milk, Cell Signaling Technology). The expression of a constitutive Hsp72/74 protein was probed with mouse monoclonal antibodies to control protein loading (1:5,000 dilution in TBST and 3% milk Calbiochem). After extensive washing, the blots incubated with HRP-conjugated secondary anti-rabbit (1:1,000 in TBST and 2% milk, Santa Cruz Biotechnology) and anti-mouse (1:10,000 TBST and 3% milk, Amersham Biosciences) IgG antibodies produced in goats, and developed as described for the dot-blot above.

ObR extracellular domain = target: T1, ObR extracellular domain (Homo sapiens, UniProt P48357); experiment: Dot-blot and ELISA-type solid-phase binding assay; conditions: dot-blot, Western-blot or ELISA; 10 and 20 μg peptide load in ELISA
T1 construct: human IgG Fc-conjugated ObR extracellular domain (R&D Systems); purchased R&D Systems
T1 sequence (P48357 22-839 limits assumed): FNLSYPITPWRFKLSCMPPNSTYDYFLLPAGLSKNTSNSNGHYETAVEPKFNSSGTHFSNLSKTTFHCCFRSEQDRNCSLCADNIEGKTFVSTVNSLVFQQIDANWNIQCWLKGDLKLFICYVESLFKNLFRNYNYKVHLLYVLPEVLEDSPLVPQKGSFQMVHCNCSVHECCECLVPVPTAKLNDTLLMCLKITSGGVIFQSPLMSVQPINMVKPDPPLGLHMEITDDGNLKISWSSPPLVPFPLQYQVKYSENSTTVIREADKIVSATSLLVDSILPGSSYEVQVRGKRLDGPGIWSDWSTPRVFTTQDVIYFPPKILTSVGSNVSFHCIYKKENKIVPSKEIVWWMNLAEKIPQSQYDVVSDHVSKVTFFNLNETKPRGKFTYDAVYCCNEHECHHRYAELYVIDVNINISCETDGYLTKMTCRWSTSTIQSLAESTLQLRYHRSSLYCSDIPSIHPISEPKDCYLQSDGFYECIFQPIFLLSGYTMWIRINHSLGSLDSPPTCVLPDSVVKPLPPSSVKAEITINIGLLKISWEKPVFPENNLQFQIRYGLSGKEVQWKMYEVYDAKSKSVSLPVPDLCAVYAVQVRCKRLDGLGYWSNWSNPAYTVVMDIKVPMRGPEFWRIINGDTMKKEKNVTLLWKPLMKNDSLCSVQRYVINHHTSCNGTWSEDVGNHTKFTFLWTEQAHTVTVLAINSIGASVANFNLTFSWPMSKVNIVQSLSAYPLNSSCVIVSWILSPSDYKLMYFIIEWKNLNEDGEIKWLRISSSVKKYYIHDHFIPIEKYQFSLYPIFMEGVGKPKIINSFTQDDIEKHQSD
Description: For dot-blot and ELISA assays, the leptin fragments were dissolved in electroblot transfer buffer (25 mM Tris and […] buffer containing 20% methanol) and were applied to either a nitrocellulose membrane or dried upon ELISA plates (Otvos, L., Jr., and Szendrei, G. I. (1996) Enzyme-linked immunosorbent assay of peptides. In: Neuropeptide Protocols (G. B. Irvine and C. H. Williams, eds.). Humana Press, Totowa, N.J., pp. 269-275). The solid surfaces were blocked with 5% BSA in a PBS-0.5% Tween 20 buffer (PBST) for 3 hours at room temperature and were subsequently incubated with 10 μg/mL solution of human IgG Fc-conjugated ObR extracellular domain (R&D Systems) dissolved in Tris-buffered saline-0.1% Tween 20 buffer (TBST) containing 1% bovine serum albumin (BSA) for 1 hour. A monoclonal goat antibody (Santa Cruz Biotechnology), specific for the N-terminus of human ObR, was added to the assay mixture, followed by addition of a horseradish peroxidase(HRP)-conjugated anti-goat IgG donkey antibody for the dot-blot assay, and HRP-conjugated anti-goat Fc mouse antibody for ELISA assay (used at a 1:15,000 dilution in PBST and 1% BSA). Between reagents, the solid surfaces were washed extensively with PBST. After washing with PBST, the membrane was treated with a chemiluminescence luminol oxidizer (NEN) for 1 min. The resultant chemiluminescence was exposed to a X-Omat blue XB-1 film (Kodak) for 10 seconds, and the exposed film was developed. The ELISA was developed using an HRP ELISA kit including tetramethylbenzidine as a substrate and sulfuric acid as a stop solution. Optical absorbance values were read at 490 nm using a microplate reader.

[1] = test system: ovariectomised (OVX) ewes; experiment: Voluntary food intake in animals with icv infusion; format: in vivo
Description: This experiment was conducted using ovariectomised (OVX) ewes (n=4/group: 55 kg). Ovariectomy removes cyclic effects of ovarian steroids, which affect sensitivity to leptin. The experiments were performed in an isolated room with an ambient temperature range of 17-22° C. […] peptide was administered to animals by way of Silastic cannulae introduced into the lateral cerebral ventricle (H8) for intracerebroventricular (icv) infusion. For infusion, pyrogen-free leptin peptide was dissolved in 0.1 mM HCl and diluted in artificial cerebrospinal fluid (aCSF) to a concentration of 10 μg/100 μl. All infusions were initiated at 0900 hours and control animals received an infusion of aCSF 100 μl/hour.

Tyr(I2)-Serβ(Glc)-Thr-Glu-Va1-Va1-Ala-Leu-Ser-Arg-Leu-Dap(Ac) ([Tyr(3,5-I2)]S(βGlc)TEVVALSRL[Dap](Ac)-NH2) [E1Free]
peptide concentration of maximum observed ERK1/2 stimulation (ERK1/2): 200 nM
phosphorylation of ERK1/2 (ERK1/2; total ERK1/2 steady): increased
binding to the extracellular domain of ObR (ObR extracellular domain): bound
reduction of voluntary food intake compared to controls (aCSF) ([1]; 10 μg/hour for 7 hours icv, program-fed OVX ewes, P<0.05): approx. 25%
effect on voluntary food intake ([1]; icv infusion, OVX ewes, over the course of two days): voluntarily reduce the amount of food taken in
